Experimental data published in PubChem BioAssay AID328 (DTP/NCI, 2004).
Several values for one entry are separate records, joined by “and”; a condition that tells them apart may be missing. Equal values may be shown once. Toxic doses and inconclusive results are not listed. The calls were made as follows: active = survival T/C of 150% or more; inactive = T/C below 125% in these data.

Test system: BDF1 mice, P388 leukemia ip, median survival T/C
Experiment: NCI In Vivo Anticancer Drug Screen. Data for tumor model P388 Leukemia (intraperitoneal) in B6D2F1 (BDF1) mice
Conditions: endpoint: median survival time, higher = longer survival
How it was run: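 Antitumour effect was judged in vivo: survival in drug-treated mice, normalised to that of vehicle-dosed controls, gives the reported T/C.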

[1] = dose: 50.0 mg/kg/injection, schedule: Q01DX009 (ip), vehicle: saline with Tween-80
[2] = dose: 50.0 mg/kg/injection, schedule: Q04DX003 (ip), vehicle: saline with Tween-80
[3] = dose: 100.0 mg/kg/injection, schedule: Q01DX009 (ip), vehicle: saline with Tween-80
[4] = dose: 100.0 mg/kg/injection, schedule: Q04DX003 (ip), vehicle: saline with Tween-80
[5] = dose: 200.0 mg/kg/injection, schedule: Q01DX009 (ip), vehicle: saline with Tween-80
[6] = dose: 200.0 mg/kg/injection, schedule: Q04DX003 (ip), vehicle: saline with Tween-80
[7] = dose: 25.0 mg/kg/injection, schedule: Q01DX009 (ip), vehicle: saline with Tween-80

Measured: T/C

OC1(O)CCN(Cc2ccccc2)CC1
inactive: [1] 122 % of control | [2] 95 % of control | [3] 104 % of control | [4] 100 % of control | [5] 95 % of control | [6] 105 % of control

CC(=O)Nc1ccc2cnn(C(C)=O)c2c1
inactive: dose: 25.0 mg/kg/injection, schedule: Q01DX009 (ip), vehicle: water 89 % of control | dose: 50.0 mg/kg/injection, schedule: Q01DX009 (ip), vehicle: water 86 % of control | dose: 50.0 mg/kg/injection, schedule: Q04DX003 (ip), vehicle: water 113 % of control | dose: 100.0 mg/kg/injection, schedule: Q01DX009 (ip), vehicle: water 88 % of control | dose: 100.0 mg/kg/injection, schedule: Q04DX003 (ip), vehicle: water 111 % of control | dose: 200.0 mg/kg/injection, schedule: Q01DX009 (ip), vehicle: water 92 % of control | dose: 200.0 mg/kg/injection, schedule: Q04DX003 (ip), vehicle: water 97 % of control | dose: 400.0 mg/kg/injection, schedule: Q01DX009 (ip), vehicle: water 91 % of control | dose: 400.0 mg/kg/injection, schedule: Q04DX003 (ip), vehicle: water 97 % of control

COc1cccc2c1C(=O)c1c(O)c3c(c(O)c1C2=O)CC(O)(C(C)=O)CC3OC1CC(NC(=O)CNC(=O)CN(C)C)C(O)C(C)O1 (configuration not stated)
inactive: dose: 1.56 mg/kg/injection, schedule: Q01DX009 (ip), vehicle: water 101 % of control | dose: 3.13 mg/kg/injection, schedule: Q01DX009 (ip), vehicle: water 92 % of control | dose: 6.25 mg/kg/injection, schedule: Q01DX009 (ip), vehicle: water 101 % of control | dose: 12.5 mg/kg/injection, schedule: Q01DX009 (ip), vehicle: water 91 % of control

NOCc1cc2c(cc1Cl)OCO2
inactive: dose: 100.0 mg/kg/injection, schedule: Q04DX003 (ip), vehicle: Klucel (hydroxypropylcellulose) (HPC) 95 % of control | dose: 200.0 mg/kg/injection, schedule: Q04DX003 (ip), vehicle: Klucel (hydroxypropylcellulose) (HPC) 100 % of control | dose: 400.0 mg/kg/injection, schedule: Q04DX003 (ip), vehicle: Klucel (hydroxypropylcellulose) (HPC) 113 % of control

C1CCC2[N-]CC3CCCCC3[N-]CC3CCCCC3[N-]CC3CCCCC3[N-]CC2C1.[Ni+2].[O-][Cl+3]([O-])([O-])O (configuration not stated)
inactive: dose: 0.75 mg/kg/injection, schedule: Q01DX009 (ip), vehicle: saline 102 % of control | dose: 1.5 mg/kg/injection, schedule: Q01DX009 (ip), vehicle: saline 110 % of control | dose: 3.0 mg/kg/injection, schedule: Q01DX009 (ip), vehicle: saline 102 % of control | dose: 6.0 mg/kg/injection, schedule: Q01DX009 (ip), vehicle: saline 105 % of control

COC(=O)C(N)CSCSC (configuration not stated)
inactive: dose: 100.0 mg/kg/injection, schedule: Q04DX003 (ip), vehicle: saline 90 % of control | dose: 200.0 mg/kg/injection, schedule: Q04DX003 (ip), vehicle: saline 100 % of control | dose: 400.0 mg/kg/injection, schedule: Q04DX003 (ip), vehicle: saline 90 % of control

CC12NC(=O)NC1(C)NC(=O)N2 (configuration not stated)
inactive: [4] 100 % of control | [6] 100 % of control

Cc1ccc(S)cc1
inactive: dose: 12.5 mg/kg/injection, schedule: Q01DX009 (ip), vehicle: saline with Tween-80 104 % of control | [7] 95 % of control | dose: 25.0 mg/kg/injection, schedule: Q04DX003 (ip), vehicle: saline with Tween-80 100 % of control | [1] 108 % of control | [2] 91 % of control

COc1ccc2c(c1)CCC1(C)C2=CC(=O)/C1=C\[O-].COc1ccc2c(c1)CCC1(C)C2=CC(=O)/C1=C\[O-].[Cu+2] (configuration not stated)
inactive: [7] 95 % of control | [1] 95 % of control | [3] 95 % of control

CS(=O)(=O)Nc1ccccc1[N+](=O)[O-]
inactive: [1] 109 % of control | [3] 104 % of control and 115 % of control | [5] 100 % of control
